Assay results reported in US9546153B2, “Bicyclic heterocycle substituted pyridyl compounds useful as kinase modulators” (BRISTOL-MYERS SQUIBB COMPANY, priority 2012, dated 2017).
Where two headings read alike, the source gives them in different places.

How the values were obtained:
IRAK4 = IRAK4 (Homo sapiens (Human), UniProt Q9NWZ3); assay: IRAK4 Inhibition Assay; assay type: biochemical; settings: ATP 500 μM; IRAK4 0.6 nM; 60 min at room temperature
Procedure: The assays were performed in U-bottom 384-well plates. […] The reaction was initiated by the combination of IRAK4 with substrates and test compounds. The reaction was incubated at room temperature for 60 min. and terminated by adding 45 μL of 35 mM EDTA to each sample. The reaction mixture was analyzed on the Caliper LABCHIP® 3000 (Caliper, Hopkinton, Mass.) by electrophoretic separation of the fluorescent substrate and phosphorylated product.

[1] = system: TLR2 induced IL-6 in peripheral blood mononuclear cells (PBMCs); assay: PBMC TLR2 Induced IL-6 Assay; assay type: cell-based, human; settings: human PBMCs, 10 μg/ml lipoteichoic acid for 5 hours, IL-6 by ELISA, value without asterisk, read-out: Cell IC50
How it was run: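 Human PBMCs (250000 cells/well) in RPMI with 10% heat-inactivated FCS pre-treated with compound for 30 min at 37° C, then stimulated 5 h with 10 μg/ml lipoteichoic acid. Supernatant IL-6 measured by ELISA and reported as IC50 or EC50.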

Chain of IRAK4 (Q9NWZ3 whole entry, species assumed): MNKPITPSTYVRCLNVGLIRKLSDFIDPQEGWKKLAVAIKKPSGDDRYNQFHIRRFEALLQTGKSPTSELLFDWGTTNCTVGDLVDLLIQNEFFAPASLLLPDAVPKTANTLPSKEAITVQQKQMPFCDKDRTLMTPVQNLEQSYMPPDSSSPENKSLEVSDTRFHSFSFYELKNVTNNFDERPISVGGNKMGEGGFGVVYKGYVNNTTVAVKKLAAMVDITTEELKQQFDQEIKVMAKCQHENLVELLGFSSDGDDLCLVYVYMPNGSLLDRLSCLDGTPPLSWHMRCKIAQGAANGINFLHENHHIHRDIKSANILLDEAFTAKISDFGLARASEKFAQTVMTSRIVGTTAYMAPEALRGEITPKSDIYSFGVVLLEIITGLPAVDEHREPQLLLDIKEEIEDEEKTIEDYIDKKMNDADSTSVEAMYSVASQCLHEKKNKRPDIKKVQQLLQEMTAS

| SMILES | IC50 (IRAK4) [nM] | IC50 ([1]; Homo sapiens, PBMC, 5 h) [nM] | IC50 [1] [nM] |
| --- | --- | --- | --- |
| CC(C)(O)[C@H](F)CNC(=O)c1cnc(Nc2ccc3ncncc3c2)cc1NC1CCC1 [Example 73] | 2.7 | 327 | – |
| CC(C)(O)[C@H](F)CNC(=O)c1cnc(Nc2ccc3nc(N)ccc3c2)cc1NC1CC1 [Example 75] | 18.9 | 710 | – |
| CNC(=O)c1cc(F)c(Nc2cc(Nc3ccc4ncsc4c3)ncc2C(=O)NC[C@@H](F)C(C)(C)O)cc1F [Example 78] | 8.6 | 282 | – |
| CC(C)(O)[C@H](F)CNC(=O)c1cnc(Nc2ccc3cnccc3n2)cc1NC1CC1 [Example 79] | 5.6 | 48 | – |
| CC(C)(O)[C@H](F)CNC(=O)c1cnc(Nc2ccc3nccnc3c2)cc1NC1CC1 [Example 82] | 8 | 366 | – |
| CC(C)(C)Nc1cc(Nc2ccc3ncsc3c2)ncc1C(=O)NC[C@@H](F)C(C)(C)O [Example 83] | 11.5 | 133 | – |
| CC(C)(O)[C@H](F)CNC(=O)c1cnc(Nc2ccc3nccn3n2)cc1NC1CC1 [Example 85] | 5.1 | 195 | – |
| Cc1cc(O)ccc1Nc1cc(Nc2ccc3ncsc3c2)ncc1C(=O)NC[C@@H](F)C(C)(C)O [Example 86] | 11.4 | 281 | – |
| CC(C)(O)[C@H](F)CNC(=O)c1cnc(Nc2ccc3ncsc3c2)cc1NC1CCCCCC1 [Example 87] | 5.3 | 271 | – |
| CC(C)(O)[C@H](F)CNC(=O)c1cnc(Nc2ccc3nccnc3c2)cc1NC1CCCCCC1 [Example 88] | 9 | 457 | – |
| CC(C)(O)[C@H](F)CNC(=O)c1cnc(Nc2ccc3ncsc3c2)cc1NC1CC2CCC1C2 (stereo partly drawn) [Example 89] | 2.6 | 32 | – |
| CC(Nc1cc(Nc2ccc3ncsc3c2)ncc1C(=O)NC[C@@H](F)C(C)(C)O)C(F)(F)F (stereo partly drawn) [Example 91] | 3.7 | 64 | – |
| CC(C)(O)[C@H](F)CNC(=O)c1cnc(Nc2ccn3nccc3c2)cc1NC1CC1 [Example 92] | 4.8 | 177 | – |
| CC(C)(O)[C@H](F)CNC(=O)c1cnc(Nc2ccc3ncsc3c2)cc1NCC1CCCO1 (stereo partly drawn) [Example 93] | 16 | 619 | – |
| CC(C)(O)[C@H](F)CNC(=O)c1cnc(Nc2ccc3ncsc3c2)cc1NCC1CCCO1 (stereo partly drawn) [Example 94] | 13 | – | 339 |
| CC(C)(O)[C@H](F)CNC(=O)c1cnc(Nc2ccc3nccnc3c2)cc1NC1CC2CCC1C2 (stereo partly drawn) [Example 95] | 1.9 | 58 | – |
| CCNc1cc(Nc2ccc3ncsc3c2)ncc1C(=O)NC[C@@H](F)C(C)(C)O [Example 96] | 4.3 | 170 | – |
| CC(C)(O)[C@H](F)CNC(=O)c1cnc(Nc2ccc3nccnc3n2)cc1NC1CC1 [Example 97] | 16.4 | 302 | – |
| CC(C)(O)[C@H](F)CNC(=O)c1cnc(Nc2ccc3nonc3c2)cc1NC1CCC1 [Example 98] | 7.2 | 165 | – |
| CC(C)(O)[C@H](F)CNC(=O)c1cnc(Nc2ccc3nonc3c2)cc1NCC(F)(F)F [Example 100] | 21.7 | 830 | – |
| CC(C)(O)[C@H](F)CNC(=O)c1cnc(Nc2ccc3ncsc3c2)cc1NC(C1CC1)C1CC1 [Example 101] | 54.8 | 570 | – |
| CC(C)(O)[C@H](F)CNC(=O)c1cnc(Nc2ccc3nsnc3c2)cc1N[C@@H](c1ccccc1)[C@H](O)CO [Example 102] | 2.9 | 312 | – |
| CC(C)(C)CNc1cc(Nc2ccc3nccnc3c2)ncc1C(=O)NC[C@@H](F)C(C)(C)O [Example 103] | 13.4 | 411 | – |
| CC1CCCC1Nc1cc(Nc2ccc3ncsc3c2)ncc1C(=O)NC[C@@H](F)C(C)(C)O (stereo partly drawn) [Example 104] | 2.5 | 350 | – |
| CC1CCCC1Nc1cc(Nc2ccc3ncsc3c2)ncc1C(=O)NC[C@@H](F)C(C)(C)O (stereo partly drawn) [Example 105] | 1.9 | – | 321 |
| CC(Nc1cc(Nc2ccc3ncsc3c2)ncc1C(=O)NC[C@@H](F)C(C)(C)O)C1CC1 (stereo partly drawn) [Example 106] | 58 | 570 | – |

| SMILES | IC50 (IRAK4) [nM] | IC50 ([1]; Homo sapiens, PBMC, 5 h) [nM] | IC50 [1] [nM] |
| --- | --- | --- | --- |
| CC(C)(O)[C@H](F)CNC(=O)c1cnc(Nc2ccc3ncsc3c2)cc1NCC(F)(F)C(C)(C)O [Example 107] | 3.9 | 174 | – |
| CC(C)(O)[C@H](F)CNC(=O)c1cnc(Nc2ccc3ncsc3c2)cc1NC1C2CCCC21 (stereo partly drawn) [Example 108] | 2.3 | 507 | – |
| CC(C)(O)[C@H](F)CNC(=O)c1cnc(Nc2ccc3ncsc3c2)cc1NC1C2CCCC21 (stereo partly drawn) [Example 109] | 5.8 | – | 454 |
| CC(C)(O)[C@H](F)CNC(=O)c1cnc(Nc2ccc3ncoc3c2)cc1NCC(F)(F)F [Example 110] | 12.6 | 728 | – |
| CC(C)Nc1cc(Nc2ccc3nnccc3c2)ncc1C(=O)NC[C@@H](F)C(C)(C)O [Example 119] | 21.7 | 587 | – |
| CC(C)Nc1cc(Nc2cc(F)c3ncsc3c2)ncc1C(=O)NC[C@@H](F)C(C)(C)O [Example 120] | 5.9 | 459 | – |
| CC(C)(O)[C@H](F)CNC(=O)c1cnc(Nc2ccc3ncsc3c2)cc1NC1CC(F)(F)C1 [Example 121] | 2 | 345 | – |
| CC(C)(O)[C@H](F)CNC(=O)c1cnc(Nc2ccc3ncccc3n2)cc1NC1CC1 [Example 122] | 4.2 | 207 | – |
| CC(C)Nc1cc(Nc2ccc3ncccc3n2)ncc1C(=O)NC[C@@H](F)C(C)(C)O [Example 123] | 3.6 | 271 | – |
| COc1ncnc2ccc(Nc3cc(NC4CCOCC4)c(C(=O)NC[C@@H](F)C(C)(C)O)cn3)cc12 [Example 124] | 3.9 | 420 | – |
| CCNc1cc(Nc2ccc3ncnc(OC)c3c2)ncc1C(=O)NC[C@@H](F)C(C)(C)O [Example 125] | 13.4 | 779 | – |
| CC(C)(F)CNc1cc(Nc2ccc3ncsc3c2)ncc1C(=O)NC[C@@H](F)C(C)(C)O [Example 126] | 1.5 | 102 | – |
| CC(C)(F)CNc1cc(Nc2ccc3ncccc3c2)ncc1C(=O)NC[C@@H](F)C(C)(C)O [Example 127] | 4.1 | 472 | – |
| COc1ncnc2ccc(Nc3cc(NC4CC4)c(C(=O)NC[C@@H](F)C(C)(C)O)cn3)cc12 [Example 128] | 10.4 | 391 | – |
| CC(C)(O)[C@H](F)CNC(=O)c1cnc(Nc2ccc3ncsc3c2)cc1NCCC1CC1 [Example 129] | 2.6 | 143 | – |
| CC(C)Nc1cc(Nc2ccc3ncoc3c2)ncc1C(=O)NC[C@@H](F)C(C)(C)O [Example 130] | 2.6 | 231 | – |
| CC(C)(O)[C@H](F)CNC(=O)c1cnc(Nc2ccc3ncsc3c2)cc1NC12CCC(O)(CC1)C2 [Example 133] | 2 | 230 | – |
| CC(C)(F)CNc1cc(Nc2ccc3ncccc3n2)ncc1C(=O)NC[C@@H](F)C(C)(C)O [Example 134] | 8.8 | 447 | – |
| CCC(C)Nc1cc(Nc2ccc3ncsc3c2)ncc1C(=O)NC[C@@H](F)C(C)(C)O (stereo partly drawn) [Example 137] | 3.6 | 528 | – |
| CCC(C)Nc1cc(Nc2ccc3ncsc3c2)ncc1C(=O)NC[C@@H](F)C(C)(C)O (stereo partly drawn) [Example 138] | 1.9 | – | 302 |
| CC(=O)NC12CCC(Nc3cc(Nc4ccc5ncsc5c4)ncc3C(=O)NC[C@@H](F)C(C)(C)O)(CC1)C2 [Example 139] | 3.1 | 310 | – |
| CC(C)(O)[C@H](F)CNC(=O)c1cnc(Nc2ccc3ncsc3c2)cc1NC12CCC(N)(CC1)C2 [Example 140] | 2.3 | 219 | – |
| CC(C)(O)[C@H](F)CNC(=O)c1cnc(Nc2ccn3nccc3n2)cc1NC12CCC(O)(CC1)C2 [Example 141] | 2.2 | 279 | – |
| CCNC(=O)c1cnc(Nc2ccc3ncsc3c2)cc1N[C@@H](c1ccccc1)[C@H](O)CO [Example 144] | 7.4 | 199 | – |
| CN1CCCC1CCNC(=O)c1cnc(Nc2ccc3ncsc3c2)cc1NC1CCCC1 (stereo not drawn) [Example 149] | 3.8 | 386 | – |
